| SMILES | melting point [°C] |
| --- | --- |
| FC(F)(F)Oc1cccc(C=Cc2nc(CNc3ccc(CCCCn4ccnn4)cc3)co2)c1 | 91 to 93 |
| COc1c(CC(=O)O)cccc1CC(=O)O | 184 to 186 |
| CC(C)(C)OC(=O)NC1CCCOCC=CC2CC2(C(=O)NS(=O)(=O)C2CC2)NC(=O)C2CC(OC(=O)NCC3CCCCC3)CN2C1=O (stereo unspecified) | 142 to 144 |
| O=C(Cn1c(-c2cccc(Cl)c2)nc2cccnc21)Nc1ccccc1 | 211 to 212 |
| C#Cc1cnc(C)c(O)c1CO | 170 to 171 |
| O=C(NCc1cc(Cl)cc(Cl)c1)c1ccnc(NC(=O)c2ccccc2)c1 | 248 to 251 |
| COC(=O)CCC(=O)c1ccc(C)cc1OCC(O)CNC(C)(C)C (stereo unspecified) | 82 to 84.5 |
| COc1cc(OCc2ccccn2)ccc1C=O | 93.6 |
| COc1cc(OC)c2c(=O)[nH]c(-c3ccc(OCCO)c(-c4ccc(S(C)=O)cc4)n3)nc2c1 (stereo unspecified) | 281 to 282 |
| O=C1N[C@H](C(=O)O)Cc2cc(O)c(O)cc21 | 268 to 272 |
| CNC(=O)Nc1ccc(N2CCN(c3ccncc3)CC2)cc1 | 258 to 260 |
| Cc1nc(-c2ccc(C(F)(F)F)cc2)oc1CSc1ccc(CC(=O)O)cc1 | 135 to 136 |
| Cn1cc(C[C@H]2NC(=O)[C@@H](CCCN)NC2=O)c2ccccc21 | 148 |
| CC1(c2ccccc2Cl)C(=O)Nc2ccc(Cl)cc21 (stereo unspecified) | 185 |
| Cc1cn(-c2cc(NC(=O)n3ccc4cc(Oc5cc(CC(N)=O)ncn5)ccc43)cc(C(F)(F)F)c2)cn1 | 223 to 229 |
| COc1ccc([C@H]2NC(=S)N[C@H]2c2ccc(OC)cc2)cc1 | 226 to 227 |
| NC(=O)C1CCN(CCOc2ccccc2CCc2ccccc2)CC1 | 60 to 63 |
| COC(=O)N(C)c1cccc(-c2ccc3nnc(C)n3n2)c1 | 164 to 166 |
| Cn1cc(C2=C(c3cn(C)c4cc(CO)ccc34)C(=O)NC2=O)c2ccccc21 | 245 to 246 |
| Cn1cnc2c(N(Cc3ccccc3)Cc3ccccc3)nc(Cl)nc21 | 144 to 146 |
| Cc1cccc(C)c1C(=O)N1C(=O)CN(c2ccccc2)C1=O | 135 to 137 |
| N#Cc1cccc2nc(N[C@@H]3CCc4ccccc43)ccc12 | 150 |
| O=[N+]([O-])c1c(Nc2ccc3[nH]ccc3c2)ncnc1-c1ccc(C(F)(F)F)cc1F | 147 to 149 |
| CCOP(=O)(COCC(O)COn1cnc2c(N)ncnc21)OCC (stereo unspecified) | 84 to 85 |
| Cc1nc(N2CCN(CC3CC3)C2=O)sc1-c1cc[nH]n1 | 169 to 171 |
| CCC=CCn1c(C)c(C)c2cnnc(OCc3ccccc3)c21 | 92 to 93 |

| SMILES | melting point [°C] |
| --- | --- |
| CN(Cc1ccc(Cl)cc1)c1ccc(S(=O)CCCCCC(=O)O)cc1 (stereo unspecified) | 109 to 111 |
| CCC(=O)C(=C1NCCCS1)[N+](=O)[O-] | 77.5 to 79.5 |
| Cc1cc(Oc2ccc([N+](=O)[O-])c(F)c2)n[nH]1 | 80 to 83 |
| COc1cccc2c(Nc3ccccc3C)nc(Nc3ccccc3C)nc12 | 185 to 187 |
| CC(=O)OC1CSC(Oc2ccc(-c3ccc(C#N)nc3)nc2)C(OC(C)=O)C1OC(C)=O (stereo unspecified) | 247 |
| CN1CCC2(CC1)NC(c1ccccc1)c1cc(Cl)ccc1N(C)C2=O (stereo unspecified) | 196 |
| N#CC(=NNc1ccc(C(F)(F)F)cc1)C(=O)NCc1ccc(Cl)nc1 | 204 to 205 |
| CC(=O)[C@H]1CC[C@H](c2ccc(Cl)cc2)CC1 | 74.6 |
| CCCCc1nc(C(C)O)c(C(=O)O)n1Cc1ccc(-c2ccccc2C(=O)O)cc1 (stereo unspecified) | 168 to 170 |
| O=C(c1ccc2[nH]cnc2c1)N1CCC[C@H](c2nc(-c3ccc(F)cc3)no2)C1 | 110 to 115 |
| O=C(O)Cc1cccc(Cc2nc3c(F)c(F)ccc3s2)c1 | 154 to 155 |
| [N-]=[N+]=NCCc1ccc(C(=O)O)cc1 | 130 to 131 |
| CNc1nc(-c2ccc(-c3ccccc3)cc2)c(C(=O)OC)s1 | > 230 |
| COc1ccc2c(c1)CCC1C2CCC2(C)C(NCc3ccccc3)CCC12 (stereo unspecified) | 102 to 104 |
| CC(C)(C)NS(=O)(=O)c1ccc(C(=O)c2ccc(Cl)cc2)cc1F | 152 |
| Clc1cccc(N2CCN(Cc3ccc4ccccc4c3)CC2)c1 | 114 to 115 |
| CC(=O)Oc1c(C(=O)c2ccccc2Cl)c(C)nn1C | 78 to 79 |
| OC(Cc1ccc(F)cc1)(Cn1cncn1)c1ccccc1 (stereo unspecified) | 116 to 118 |
| COc1cc(Nc2ncnc3cc(OCC4CCCCO4)c(OC)cc23)c(OC)cc1Cl (stereo unspecified) | 203 to 209 |
| COc1ccc(CCOS(N)(=O)=O)cc1OC | 106 to 108 |
| CC(C)c1ccc(C2c3cc(NC(=O)CC(C)(C)C)ccc3OC2(C)C)cc1 (stereo unspecified) | 126 to 127 |
| O=Cc1coc2c(c1=O)CCc1ccccc1-2 | 153 to 156 |
| CC(=O)Oc1cc(OCC(O)c2ccc3c(c2)C(C)(C)CCC3(C)C)ccc1C(=O)O (stereo unspecified) | 119 to 120 |
| O=C1[C@H]2CCC[C@H]2N(C(=O)CCCCCn2ccnc2)c2ccccc2N1Cc1ccccc1 (relative stereo) | 133 to 134 |
| O=C(NCc1ccccc1)c1ccnc(-n2ccc(OCc3ccccc3)cc2=O)c1 | 158 to 161 |
| COc1ccc(N=Nc2ccc(O)c(C(=O)Nc3ccc4cn[nH]c4c3)c2)cc1 | 279 |

| SMILES | melting point [°C] |
| --- | --- |
| N#CSCC(Cl)=C(Cl)CCl | 60 to 63 |
| CCOC(=O)c1cnn(-c2c(F)c(F)c(C(F)(F)F)c(F)c2F)c1N | 166 to 168 |
| CC1=CC(O)C(OC(=O)c2ccc(Cl)cc2)C(C)(C)CC1=O (stereo unspecified) | 114 to 116 |
| COC(=O)NNC(=S)CC(C)(C)C | 72.5 to 73 |
| Cc1nc(C(C)(C)C)c[nH]1 | 155 to 156 |
| COc1ccc(-c2coc3cc(OCC4CO4)ccc3c2=O)cc1OC (stereo unspecified) | 161 to 162 |
| Cc1cc(NC(=O)C(C)(O)COc2ccccc2F)ccc1[N+](=O)[O-] (stereo unspecified) | 94 to 96 |
| O=c1n(Cc2ccc([N+](=O)[O-])cc2)c2ccc(Cl)cc2n1C1CCCCC1 | 139 |
| CCCCCCCCSC(=O)CS(=O)(=O)Nc1c(C(C)C)cccc1C(C)C | 51 to 52 |
| Cc1ccccc1-n1cnc(OC(C)C(=O)O)n1 (stereo unspecified) | 151 to 153 |
| CSc1ccc(C(=O)O)c(C(F)(F)F)c1F | 108 to 109 |
| S=C=Nc1ccccc1-c1ccc(Cl)cc1 | 63 |
| C(#Cc1cccc(-c2cnccn2)c1)c1ccncc1 | 94 to 95 |
| COCOc1nn(-c2ccccc2)cc1/C=C/c1csc(C(C)(C)C)n1 | 112 to 113 |
| COC(=O)c1ccccc1NC(=O)OC1CC2C(=O)NC3(C(=O)NS(=O)(=O)C4CC4)CC3C=CCOCCCC(NC(=O)OC(C)(C)C)C(=O)N2C1 (stereo unspecified) | 147 to 149 |
| Cc1cc2n[nH]c(=O)n2nc1-c1ccc(C(N)=S)cc1 | 325 to 329 |
| COC1CN(CCC(C(=O)N(C)C)(c2ccccc2)c2ccccc2)CCC1NC(=O)c1ccccc1 (stereo unspecified) | 147 |
| COCCN(CC1=CCC(Oc2ccccc2)([N+](=O)[O-])C=C1)C(=O)C(Cl)Cl (stereo unspecified) | 116 to 117 |
| CCC12CCC3C4CCC(=O)C=C4CCC3C1CCC2OC(=O)CCc1ccccc1 (stereo unspecified) | 135 to 140 |
| CC(C)Oc1ccc(CCCOc2nn(Cc3ccccc3)cc2CC(=O)O)c(Oc2ncc(Cl)cc2Cl)c1 | 111 to 113 |
| CCOC(=O)N1CCc2c(cnc3nc(/C=C4/C(=O)N5C(C(=O)O)=CS[C@H]45)nn23)C1 | > 250 |
| C=CCn1c(=O)c(OC)nn(-c2cccc(NC(C)=O)c2)c1=O | 72 to 73 |
| CC1(C(=O)P(=O)(c2ccccc2)c2ccccc2)CCCCC1 | 80 |
| Nc1scc2c1c(=O)oc1ccc3ccccc3c12 | 221 to 222 |
| CCCCCCCCNC(=O)c1ccc(O)c(O)c1 | 118 to 120 |
| Cc1c(C)c2c(c(C)c1NCc1ccccc1)C(c1ccc(-c3ccccc3)cc1)CO2 (stereo unspecified) | 77 to 78 |

| SMILES | melting point [°C] |
| --- | --- |
| COc1cc(-c2nnc3n2CCC[C@]3(Oc2cc(F)c(F)c(F)c2)C(C)(C)O)ccc1-c1cnc(C)o1 | 188 |
| Cn1nc(-c2cccc(C(F)(F)F)c2)c(O)c1C(=O)O | 192 to 194 |
| CCn1nc(OC2CSCCC2=O)c(-c2ccc(F)cc2)c1-c1ccc(S(C)(=O)=O)cc1 (stereo unspecified) | 210 to 211 |
| CC(C)C1c2ccc(F)cc2CCC1(O)CC(=O)O (stereo unspecified) | 102 to 104 |
| Cc1nnc2cc(-c3ccccn3)ccn12 | 239 to 241 |
| Oc1ccc(Br)cc1-c1nc2ccccc2s1 | 164 to 165 |
| CCOC(=O)c1ccc(S(=O)(=O)C(C)(C)C)cc1Cl | 82.4 to 83 |
| N#CC1=C(c2ccsc2)Nc2n[nH]cc2C1c1cccc2nonc12 (stereo unspecified) | 242 |
| CCN(CC)C(C)COc1ccccc1C(=O)O (stereo unspecified) | 137 to 140 |
| NC1=C(NC=O)C(=O)N2CCN=C2N1Cc1ccccc1 | 248 to 250 |
| CON(Cc1nc2c(N)nc(C)c(C)c2n1CC(C)C)C(=O)C1CC1 | 135 to 137 |
| CO[C@@H]1CC[C@H](C(=O)O)Cc2onc(-c3ccc(Cl)cc3)c21 (relative stereo) | 168 to 170 |
| CCCCCCCCCCC#Cc1ccc2c(c1)c(C=O)cn2S(=O)(=O)c1ccc(C)cc1 | 84 to 86 |
| O=C(O)COc1ccc(-c2coc3cc(OCC(=O)O)ccc3c2=O)cc1 | 270 to 272 |
| CCCS(=O)(=O)c1csc2c(=O)n([C@H](C)[C@](O)(Cn3cncn3)c3ccc(F)cc3F)cnc12 | 115 to 122 |
| Nc1ccc2c(c1)S(=O)(=O)N=C2NCCCOc1cccc(CN2CCCCC2)c1 | 191 to 193 |
| O=P(O)(O)C(O)(Cc1nn(-c2ccc(F)cc2)cc1-c1ccc(Cl)cc1)P(=O)(O)O | 201 to 203 |
| C1CNCCNCCNCCNCCN1 | 92 to 103 |
| Cc1ccc(N)cc1Nc1cc(-c2cccnc2)ccn1 | 183 to 186 |
| N#CC1=Cc2ccccc2C(N2CCN(N)CC2)c2ccccc21 (stereo unspecified) | 137 to 146 |
| Brc1ccc(-c2ccc(-c3ccc(Br)cc3)o2)cc1 | 198 to 199 |
| Cc1c(N)cc(C)c2c(=O)[nH]ccc12 | 242 |
| CCN(CC)N(C(C)=O)c1nc2c(C)c3nc(N(C(C)=O)N(CC)CC)sc3cc2s1 | 191 to 192 |

From a melting point compilation (Tetko et al.; mined from patent text by program, amines drawn as free bases though some values may be those of a salt)
